Results: a melting point compilation (Tetko et al.; mined from patent text by program, amines drawn as free bases though some values may be those of a salt)

SMILES | melting point [°C]
COc1cc(OC)c(-c2cc3ccccc3n2C(=O)OC(C)(C)C)cc1/C=C/C(=O)c1ccc(C(=O)O)cc1 | 182 to 183
C=C(c1ccc(N(C(=O)c2c(I)cccc2C(N)=O)C(C)C)c(C)c1)C(F)(F)F | 201 to 203
Cc1ccc(C)c2[nH]c(N)nc12 | 164 to 170
NC(=O)NC(=S)Nc1ccccc1 | 176 to 180
CNC(=S)n1nc(Oc2ncc(C(F)(F)F)cc2Cl)cc1C | 63 to 65
O=C1N(C2CCCCC2)CC(CO)C1(c1ccccc1)c1ccccc1 (stereo not drawn) | 148 to 150
Cc1cn(-c2cc3nc(NN)c(=O)n(OCc4ccccc4)c3cc2C(F)(F)F)c(-c2ccccc2)n1 | 127 to 130
Fc1c(OCc2ccccc2)ccc(-c2ncc(Br)cn2)c1F | 138
CCOC(=O)c1ccc(-c2cnc3c(c2)N(C(=O)c2ccccc2)CCN3)cc1 | 177 to 178
CCc1cc(O)cc2cc(-c3ccc(O)cc3)oc12 | 218 to 220
CN1CC=C(CC(=O)N2c3ccccc3NC(=O)c3ccccc32)CC1 | 200 to 201
COc1cc(OCCNC(=O)C2Cc3ccccc3N2S(=O)(=O)c2ccc(-c3cc(C(F)(F)F)ccc3Cl)cc2)ccc1C(=O)O (stereo not drawn) | 98 to 104
CC(C)(C)c1cc(C(=O)c2c[nH]c(SC#N)c2)cc(C(C)(C)C)c1O | 230 to 231
CSc1cc(-c2nc3ccccc3[nH]2)no1 | 179 to 181
NNC1=NS(=O)(=O)c2cc(Cl)ccc21 | 277
CC(=O)NCCN1CCc2ccc3c(c21)CCCO3 | 91 to 93
NC(=O)c1cc(OCCNCC(O)c2ccccn2)ccc1O (stereo not drawn) | 169 to 170
Cn1cc(OC(=O)c2ccccc2)c(=O)c2cccc(F)c21 | 179 to 181
CS(=O)(=O)c1ccc(-c2ccc3cnc(Nc4ccc(C5CCN(CC(N)=O)CC5)cc4)nn23)cc1 | 310
CCCC(=O)OCC(=O)c1ccc(-c2ccccc2)cc1 | 82
CCOC(=O)c1c(C(F)(F)F)nc2ccccc2c1O | 192
CNC(=O)[C@@H]1CCCN1C(=O)[C@H](C)NC(=O)OCc1ccccc1 | 126 to 129
Oc1cccc(C2=CCCN(CCc3ccccc3)C2)c1 | 155
CS(=O)c1ccc(Oc2ccc([N+](=O)[O-])cc2)cc1 (stereo not drawn) | 76 to 78
COc1ccc(-c2nc(-c3cccn3CC(=O)OC(C)C)sc2-c2ccc(OC)cc2)cc1 | 130 to 133

SMILES | melting point [°C]
CCN(CC)Cc1nc2cc(OC)c(OC)cc2c(-c2ccc(OC)c(OC)c2)c1C(=O)c1ccccc1 | 150 to 151
Clc1ccc(C(=Cc2ccccc2Cl)Cn2cncn2)cc1 | 106 to 110
CNC(=O)N1CC(Oc2cccc(Cl)c2)C1 | 140 to 141
Oc1cc2c3c(sc2c(Cl)c1Cl)CCCC3 | 103 to 105
C=C1/C(=C\C=C2/CCC[C@@]3(C)[C@H]2CC[C@@H]3[C@]2(C)C[C@H](CC(C)(C)O)CO2)C[C@@H](O)C[C@@H]1O | 128
CC(C)(C)OC(=O)Nc1ccc(-c2cccc3ccccc23)cc1[N+](=O)[O-] | 60 to 66
Cn1cc(Cc2ccccc2)c(=O)c(-c2cccc(C(F)(F)F)c2)c1 | 98 to 100
COc1ccc(N2CCN(c3c(C)c(C)c4c(c3C(C)C)CC(C)(C)O4)CC2)cc1 | 192 to 194
CC(C)(C)C(NC(=O)CCCc1cccnc1)NC(=NC#N)Nc1cccc2ncccc12 (stereo not drawn) | 181 to 182
COC(=O)c1nc(O)ccc1OCc1ccccc1 | 91 to 92
O=C(O)c1c[nH]c2c(OCC3CN(Cc4ccccc4)CCN3Cc3ccccc3)c(F)c(F)cc2c1=O (stereo not drawn) | 158 to 159
O=C(NCCN1CCCC1)Nc1ccc(-c2cnc(COCc3cc4ccccc4o3)o2)cc1 | 124 to 126
CS/C=C(/C)n1c(=O)n(Cc2cc(C(F)(F)F)cc(C(F)(F)F)c2)c2ccccc21 | 148
COC(=O)CN(C)C(=O)c1ccc(OC)c2cc(OC)ccc12 | 105 to 107
O=c1cc(NCC2CCCO2)oc2c1ccc1ccccc12 (stereo not drawn) | 139 to 140
O=C(O)c1ccc2c(c1)C(=O)CC(c1ccccc1)=N2 | > 300
COc1ccc2cc(-c3ccc(-c4ccccc4)[nH]3)ccc2c1 | 208 to 210
COc1ccc(C)cc1NC(=O)Nc1ccc(C2=CCN(C(=O)Nc3cc(OCCO)ccc3Cl)CC2)cc1 | 139 to 142
N#Cc1ccc(C=C2CCNC2=O)cc1 | 260
C#CCOc1ccc2c(C)cc(=O)oc2c1C(=O)C=Cc1cccc(OC)c1 | 154 to 156
COc1ccc(S(=O)(=O)Nc2ccc(COc3ccc4c(c3)CCC(CN(C)C)C4)cc2)cc1 (stereo not drawn) | 137 to 140
Oc1ccc2cc(COCC3CC3)ccc2c1 | 129 to 132
CC(=O)c1cc(Cl)c(N)cc1F | 97 to 98
COc1cc(O)c2c(=O)c(OC)c(-c3ccc(OC(C)=O)c(OC)c3)oc2c1 | 168 to 169
Cc1coc(N(CCCCCCN)c2nc(C)co2)n1 | 124

SMILES | melting point [°C]
CCOC(=O)c1c(C(F)(F)F)nc(-c2ccccc2)c(-c2ccccc2)c1O | 130
CS(=O)(=O)c1ccc(-c2cnn(-c3ccc(F)cc3)c(=O)c2Cc2ccccc2)cc1 | 180 to 182
Cc1cc(C#N)cc2c(=O)oc(-c3cc(Br)nn3-c3ncccc3Cl)nc12 | 263 to 267
C[Si](C)(C)C#CC1(OC(=O)c2ccccc2)C(COC(=O)c2ccc(Cl)cc2)OC(OC(=O)c2ccccc2)C1OC(=O)c1ccccc1 (stereo not drawn) | 63 to 66
COc1cccc2sc(C(=O)Nc3nnn[nH]3)c(OC(C)C)c12 | 233
O=C(C=Cc1ccc(O)c(OC(F)(F)F)c1)C(CCOCCO)C(=O)C=Cc1ccc(O)c(OC(F)(F)F)c1 (stereo not drawn) | 112 to 114
Cn1cncc1C(O)(c1ccc(F)cc1)c1ccc2nc(Cl)nc(-c3cccc(Cl)c3)c2c1 (stereo not drawn) | 212
CNC(=O)N1CC(Oc2ccccc2C(N)=O)C1 | 236 to 240
CN1CCCC1=C(C#N)C(=O)c1ccc(Cl)cc1 | 115
CC(C)(NC(=O)CCNC(=O)c1ccccc1)c1ccccc1 | 147 to 148
CCCCCC/C(=C\c1ccccc1)CNc1cccc(-c2ccnc3c(C(=O)c4cccs4)cnn23)c1 | 110 to 115
CC(=O)Nc1nc2c(s1)CCN(Cc1ccccc1)CC2 | 129 to 130
CCCOc1ccc(-c2ccc(N)nn2)cc1OC | 147
CCS(=O)(=O)Nc1n[nH]c2nc(Oc3ccc(F)cc3F)ncc12 | 226 to 227
CCCC(=O)N1N=C(c2ccc([N+](=O)[O-])cc2)c2cc(Cl)c(Cl)cc2CC1C (stereo not drawn) | 75 to 77
COc1cc(Cc2cnc(N)nc2N)c2c(c1OC)OC(C)CC2 (stereo not drawn) | 239 to 240
O=C1NCCc2c(OCCCN3CCCCC3)cccc21 | 112 to 114
Cc1c(O)ccc2c1C(C)(C)CC2 | 92 to 93
CCCCC(C)(C)C=CC(OC(C)=O)C1C(C)CC2OC(=O)CC21 (stereo not drawn) | 83 to 83.5
CC12CCC3C(=C1CCC2=O)C=CC1=CC(=O)CCC13CO (stereo not drawn) | 264 to 265
COc1ccc(CN(C)c2ncnc3c(N4CCOCC4)nc(N4CCC(N(C)C)CC4)nc23)cc1 | 109 to 110
COc1ccc([N+](=O)[O-])c(C(=O)O)c1OC | 187 to 189
c1ccc2c(c1)-c1sccc1C2Cc1ccncc1 (stereo not drawn) | 91 to 93
CN1CCN(C2CC3C4CCC5CC6OC6CC5(C)C4CCC3(C)C2=O)CC1 (stereo not drawn) | 132 to 134
CC1=C(c2ccc(O)cc2)C(=O)c2c(O)cc(O)cc21 | 126 to 129

SMILES | melting point [°C]
CCc1c(NC(=O)c2cc(S(C)(=O)=O)ccc2OCC(C)C)c(C(N)=O)nn1C1CCN(C(=O)OC(C)(C)C)CC1 | 134 to 141
COc1ccc(S(=O)(=O)N2Cc3ccccc3N(C(=O)COc3ccccc3)CC2C(=O)O)cc1 (stereo not drawn) | 188 to 191
COC(=O)CCCCN(CCc1cc(-c2ccc(F)cc2F)ccc1OCc1ccc(-c2ccc(C(F)(F)F)cc2)cc1)Cc1ccc(C(=O)OC)cc1 | > 240
CC(=O)NC[C@H]1CN(c2ccc(N3CCN(C(=O)CO)CC3)c(F)c2)C(=O)O1 | 87 to 90
CCOC1C(NC(C)=O)CC(OC)OC1C (stereo not drawn) | 199 to 200
FC(F)(F)c1cc(-c2ccc(Cl)cc2)nc2c(I)cnn12 | 155
O=C1CCC(=O)N1c1cccc2ccccc12 | 154
Oc1nsnc1-c1ccc(Cl)cc1 | 240 to 242
CSc1nc2c(F)cccc2s1 | 30
CCCN(CCN1CCN(c2ccccc2OC)CC1)C1CCc2ncsc2C1 (stereo not drawn) | 136
CNC1=NN(c2ccc(Cl)cc2)C(C)C1 (stereo not drawn) | 102 to 103
FC(F)(F)c1ccc(-c2cc(C(F)(F)F)n3ncc(C#Cc4cncnc4)c3n2)cc1 | 175
N#Cc1ccc2[nH]cc(CCNC(=O)OCc3ccccc3)c2c1 | 128 to 129
CC(=O)N(C(C)=O)C(C)=C1CC2C3CC4C2C4C13 (stereo not drawn) | 112 to 128
C#CC1(O)C=CC2C3CCC4=CC(=O)CC(O)C4C3CCC21CC (stereo not drawn) | 129 to 130
CNCc1nc(C(=O)NC)c2n1-c1ccc(Cl)cc1C(c1ccccc1Cl)=NC2 | 270 to 273
O=c1c2cc(Br)ccc2c2cc3c(=O)c4cc(Br)ccc4c3cc12 | > 300
COc1cccc(C(=O)c2ccc(OCc3nc(-c4ccccc4)oc3C)cc2)c1O | 152 to 153
COc1ccc(C(O)(C2CC2)C2CC2)c2c1nc1n2CCCN1c1ccc(Cl)cc1Cl | 219 to 220
COc1ccc(S(=O)(=O)n2ccc3ccnc(-c4ccccc4)c32)cc1 | 149 to 151
CCCCCCN1N=C(c2ccc(OC)c(OC)c2)C2CC=CCC2C1=O (stereo not drawn) | 74 to 75
CNC(=O)c1cc(SC)cc(N)n1 | 89 to 91
CCOC(=O)c1cc(-c2ccc(Br)cc2)c(=O)n(Cc2ccc(Cl)cc2Cl)c1 | 152 to 154
